According to patent publication US20240067702A1, “LACTAM-MODIFIED P[…]” (DONGBAO PURPLE STAR (HANGZHOU) BIOPHARMACEUTICAL CO., LTD., priority 2020, published 2024):
*1 amine or outer side, *2 acyl side, *3 side chain or, on linkers, in order; H or OH if unused. Where a SMILES comes first, the peptide text is derived from it. Bridges are numbered along the chain shown (N, C = ends). Side-chain parts run from the residue outwards. [ ]: non-standard residue; d: D form. The star is where a group is joined. C20 diacid = O=C(O)CCCCCCCCCCCCCCCCCCC(=O)*; γGlu = O=C(O)[C@H](CCC(=O)[*:2])N[*:1]; AEEA = NCCOCCOCC(=O)O; Aib = CC(C)(N)C(=O)O

Experiments:
GLP-1R = biological target: T1, GLP-1R (Homo sapiens, UniProt P43220); assay: GLP-1R agonist activity test in vitro (cAMP assay); format: cell-based; details: HEK293 host cell
T1 construct: host or cells: HEK293
T1 sequence (P43220 24-463): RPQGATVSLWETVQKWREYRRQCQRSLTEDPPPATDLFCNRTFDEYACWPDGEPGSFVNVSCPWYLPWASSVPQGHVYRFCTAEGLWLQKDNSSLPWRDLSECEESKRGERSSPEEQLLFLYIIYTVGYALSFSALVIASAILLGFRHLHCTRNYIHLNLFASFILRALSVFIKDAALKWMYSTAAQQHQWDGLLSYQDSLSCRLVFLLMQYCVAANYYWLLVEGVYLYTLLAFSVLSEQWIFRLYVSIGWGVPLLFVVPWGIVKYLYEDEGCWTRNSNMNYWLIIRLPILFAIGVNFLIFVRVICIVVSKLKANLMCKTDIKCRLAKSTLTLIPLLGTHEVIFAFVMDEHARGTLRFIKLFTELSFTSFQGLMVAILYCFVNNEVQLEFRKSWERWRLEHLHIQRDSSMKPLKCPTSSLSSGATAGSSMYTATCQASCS
Procedure: (§1) The cell strains were constructed by Shanghai WuXi AppTec.
(§2) The test compound was serially diluted 4-fold with 10 points. The initial concentration was 30 μM, and the dilution was completed with Bravo.
(§3) 1) 100 nL of the compound was transferred to OptiPlate-384 plate using Echo.
(§4) 7) The GLP-1R/GIPR cell concentration was diluted to 2.0*10^5/mL with the experimental buffer.
(§5) 8) […] of the diluted cell suspension was transferred into the OptiPlate-384 plate.
(§6) 9) The diluted cell suspension was incubated at room temperature for 30 minutes.
(§7) 2) 10 μL of cAMP detection reagent was added.
(§8) 3) The OptiPlate-384 plate was covered with TopSeal-A film and incubated at room temperature for 60 minutes.
(§9) TopSeal-A was removed and read in EnVision.

GIPR = biological target: T2, GIPR (Homo sapiens, UniProt P48546); assay: GIPR agonist activity test in vitro (cAMP assay); format: cell-based; details: CHO host cell
T2 construct: host or cells: CHO
T2 sequence (P48546 22-466): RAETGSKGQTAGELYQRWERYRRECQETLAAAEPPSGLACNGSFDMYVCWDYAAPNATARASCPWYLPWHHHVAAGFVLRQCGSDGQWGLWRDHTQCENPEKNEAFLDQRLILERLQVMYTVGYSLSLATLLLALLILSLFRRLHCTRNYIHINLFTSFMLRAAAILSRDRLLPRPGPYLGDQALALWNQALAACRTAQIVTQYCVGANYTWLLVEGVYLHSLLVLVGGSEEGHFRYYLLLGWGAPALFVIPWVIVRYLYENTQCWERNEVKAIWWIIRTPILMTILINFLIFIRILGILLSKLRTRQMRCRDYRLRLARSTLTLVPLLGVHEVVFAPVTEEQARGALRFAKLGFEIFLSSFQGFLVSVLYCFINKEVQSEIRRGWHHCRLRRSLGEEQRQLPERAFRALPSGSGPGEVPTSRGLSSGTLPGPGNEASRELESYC
Procedure: as §1, §2, §3, §4, §5, §6, §7, §8, §9

[1] = Plasma stability (PLS) test, human plasma; format: in vitro ADME; details: pH 7.4, 37° C., up to 120 min, read-out: PLS (H/M) T1/2, H
human plasma albumin = assay: Plasma protein binding (PPB) test, human; format: in vitro ADME; design: key: NA means the plasma-protein binding is too high, and no free drug can be detected under a normal concentration of plasma protein; details: ultracentrifugation
Procedure: (§10) To study the binding of the test compounds to human/mouse plasma albumin.
(§11) 1. Matrix preparation: On the day of the experiment, the plasma was thawed in cold water and centrifuged at 3220 rpm for 5 min to remove all blood clots. The pH of the obtained plasma was measured and adjusted to 7.4±0.1 using 1% phosphoric acid or 1N sodium hydroxide as needed.
(§12) 2. Dilution steps of the test compounds: The test compounds were dissolved in dimethyl sulfoxide (DMSO) to prepare stock solutions at concentrations of 10 mM and 2 mM, respectively. A 40 μM working solution was prepared by diluting 2 μL of the stock solution (2 mM) with 98 μL of DMSO. A 400 μM working solution of the control compound was prepared by diluting 10 μL of the stock solution with 240 μL of DMSO. The working solution of the compound (5 μL) was mixed with the blank matrix (995 μL) at a ratio of 1:200 to prepare the loading matrix.
3.1 An equal amount of 30 μL of the loading matrix (n=2) was transferred to the sample collection plate to prepare samples of time 0 (TO) for residue determination. The samples were immediately matched to the corresponding blank buffer in a final volume of 60 μL with a 1:1 volume ratio of plasma to buffer in each well. Then, 60 μL of 4% H3PO4 in H2O and 480 μL of stop solution containing an internal standard were then added to the TO samples of the test compounds. […]

mouse plasma albumin = assay: Plasma protein binding (PPB) test, mouse; format: in vitro ADME; design: key to PPB % unbound (H/M), M: NA means the plasma-protein binding is too high, and no free drug can be detected under a normal concentration of plasma protein; details: ultracentrifugation
Procedure: as §10, §11, §12
3.1 An equal amount of 30 μL of the loading matrix (n=2) was transferred to the sample collection plate to prepare samples of time 0 (TO) for residue determination. The samples were immediately matched to the corresponding blank buffer in a final volume of 60 μL with a 1:1 volume ratio of plasma to buffer in each well. Then, 60 μL of 4% H3PO4 in H2O and 480 μL of stop solution containing an internal standard were then added to the TO samples of the test compounds. They were then stored at 2-8° C. with other samples pending for further processing.
3.2 The remaining plasma samples were pre-incubated in a carbon dioxide incubator at 37±1° C. for 30 min. The prepared protein-free samples (F samples) and loading matrix samples (230 μL) were transferred to polycarbonate tubes (n=2) and ultracentrifuged at 37° C. and 155000×g (35000 rpm) for 4 hours.
3.3 To prepare T samples (test samples), an additional matrix-containing sample was transferred to a separate 96-well plate (sample incubation plate) and incubated at 37° C. for 4 hours.
3.4 After centrifugation, 30 μL of protein-free sample and 30 μL of T sample were transferred from the second layer of supernatant (below the upper layer) to a new sample collection plate. Each sample was mixed with the corresponding blank buffer or matrix in a final volume of 60 μL with a matrix:buffer volume ratio of 1:1. 60 μL of 4% H3PO4 aqueous solution and 480 μL of stop solution (containing internal standard) were added to all samples. The mixture was centrifuged at 4000 rpm for 20 min, and 100 μL of the supernatant of each sample was taken for LC-MS/MS analysis.

[2] = Kidney homogenate stability (BHS) test; format: in vitro ADME; details: normal mouse kidney homogenate, 37° C.; read-out: BHS (T1/2 (min))
Procedure: To study the stability of the test compounds in normal mouse kidney homogenate.
1. Before the experiment, the frozen kidney homogenate was thawed in a 37° C. water bath.
2. Test compounds: 10 mM stock solution was diluted with DMSO to prepare 1 mM intermediate solution;
3. test compounds: 1 mM intermediate solution was diluted with DMSO to prepare 50 μM dosing solution;
4. at each time point (0, 10, 30, 60, 120, 180, 240 min), 100 μL of 4% H3PO4 and 800 μL of stop solution were added to precipitate the protein, and mixed thoroughly.
5. The samples were centrifuged at 4000 rpm for 10 min, and 100 μL of supernatant was taken from each well to the plate. The samples were shaken at 800 rpm for approximately 10 min before submitting for LC-MS/MS test.

Structure (SMILES): CC[C@H](C)[C@H](NC(=O)[C@H](CC(C)C)NC(=O)[C@H](Cc1c[nH]c2ccccc12)NC(=O)[C@@H]1CCC(=O)NCCCC[C@H](NC(=O)[C@H](CCC(N)=O)NC(=O)[C@H](C)NC(=O)[C@H](CCCCNC(=O)COCCOCCNC(=O)COCCOCCNC(=O)CC[C@H](NC(=O)CCCCCCCCCCCCCCCCCCC(=O)O)C(=O)O)NC(=O)[C@H](CCCCN)NC(=O)[C@H](CC(=O)O)NC(=O)[C@H](CC(C)C)NC(=O)C(C)(C)NC(=O)[C@@H](NC(=O)[C@H](CO)NC(=O)[C@H](Cc2ccc(O)cc2)NC(=O)[C@H](CC(=O)O)NC(=O)[C@H](CO)NC(=O)[C@@H](NC(=O)[C@H](Cc2ccccc2)NC(=O)[C@@H](NC(=O)CNC(=O)[C@H](CCC(=O)O)NC(=O)C(C)(C)NC(=O)[C@@H](N)Cc2ccc(O)cc2)[C@@H](C)O)[C@@H](C)O)[C@@H](C)CC)C(=O)N[C@@H](C)C(=O)N[C@@H](Cc2ccccc2)C(=O)N[C@@H](C(C)C)C(=O)N1)C(=O)N[C@@H](C)C(=O)NCC(=O)NCC(=O)N1CCC[C@H]1C(=O)N[C@@H](CO)C(=O)N[C@@H](CO)C(=O)NCC(=O)N[C@@H](C)C(=O)N1CCC[C@H]1C(=O)N1CCC[C@H]1C(=O)N1CCC[C@H]1C(=O)N[C@@H](CO)C(N)=O [WX-001] (H-Y[Aib]EGTFTSDYSI[Aib]LDKK([AEEA-AEEA-γGlu-C20 diacid])AQKAFVEWLIAGGPSSGAPPPS-NH2; lactam 20-24)
- EC50 (GLP-1R; GLP-IR Agonist Activity EC50 (+) 1% HSA, with 1% HSA): 3.66 nM
- EC50 (GLP-1R; GLP-IR Agonist Activity EC50 (−) 1% HSA, without 1% HSA): 0.014 nM
- EC50 (GIPR; GIPR Agonist Activity EC50 (+) 1% HSA, with 1% HSA): 23 nM
- EC50 (GIPR; GIPR Agonist Activity EC50 (−) 1% HSA, without 1% HSA): 0.44 nM
- half-life at 2 μM [1]: > 289 min
- PPB % unbound (H/M), H (human plasma albumin): NA/NA
- PPB % unbound (H/M), M (mouse plasma albumin): NA/NA
- half-life [2]: 14 min
